Patent US20100129353A1, “COMBINATION AND TREATMENT FOR MULTIPLE SCLEROSIS” (Laboratoires Serono S.A., priority 2004, published 2010)

Assays:
[1] = system: brain lesions associated with progression of MS; assay: Study of sixty patients with chronic multiple sclerosis: MRI brain lesions after one year of treatment; assay type: in vivo; conditions: seven days once per month for one year, MRI at month 12
Protocol: A study of sixty patients with chronic multiple sclerosis is undertaken. Each patient is first examined for normal hepatic, renal, and bone marrow functioning to establish baseline values. [table] Each of the patients in Groups 2-4 and 8-10 is treated with 2-CdA dissolved in sterile preservative-free isotonic saline, whereas patients in Groups 1 and 5-7 receive a placebo (saline). The 2-CdA is administered intravenously for a total of seven days, once per month for a total of one year. Each of the patients in Groups 5-10 is treated with natalizumab, whereas Groups 1-4 received placebo (saline). The natalizumab is administered intravenously for a total of seven days, once per month for a total of one year, with the treatment being on the same day as 2-CdA treatment. Patients are monitored to determine whether there is any progression or improvement of brain lesions associated with progression of MS. All patients have a baseline and MRI study (brain or spinal cord, according to localization of the lesions) at month 12.

[2] = system: MRI-measured brain lesions; conditions: MS patients, cited from earlier work

Compound | change in brain lesions (MRI) ([1]; Group 2: 2-CdA 0.25 mg/kg i.v.) | change in brain lesions (MRI) ([1]; Group 3: 2-CdA 0.5 mg/kg i.v.) | change in brain lesions (MRI) ([1]; Group 4: 2-CdA 1 mg/kg i.v.) | MRI-measured brain lesions ([2]; Phase II study as printed (Rice et al., 2000)) | adverse effects ([2]; observed with the highest doses) | change in brain lesions (MRI) ([1]; Group 5: natalizumab 1 mg/kg i.v.) | change in brain lesions (MRI) ([1]; Group 6: natalizumab 3 mg/kg i.v.) | change in brain lesions (MRI) ([1]; Group 7: natalizumab 6 mg/kg i.v.)
Nc1nc(Cl)nc2c1ncn2[C@H]1C[C@H](O)[C@@H](CO)O1 [2-CdA, 2-chloro-2′-deoxyadenosine] | increase in brain lesions | increase in brain lesions | decrease in brain lesions | significantly reduced MRI-measured brain lesions | increased incidence of infections related to compromised immune function or myelosuppression | – | – | –
natalizumab: anti-alpha-4 integrin antibody used as the second agent in Example 1 | – | – | – | – | – | increase in brain lesions | decrease in brain lesions | decrease in brain lesions
